Experimental data from patent publication US20150275180A1, “Chemical preconditioning process for cell material to obtain chemical epigenetic reprogramming and pluripotency expression” (priority 2012, published 2015).
Like-named read-outs stand apart in the source and are kept apart here.

Tests used:
[1] = system: human dermal skin fibroblasts; test: Comparative analysis of HBR, its grafting moieties alone or as a mixture, on stemness gene expression; format: cell-based; details: 12 hours, 2.0 mg/ml HBR, 1.5 mg/ml HA, 2.5 mM BU, 10^-8M RA, hydrolyzed HBR 2 mg/ml
Description: FIG. 6 is the comparative analysis of the effect of HBR, or its grafting moieties alone or as a mixture, on the expression of sternness-related genes in human dermal skin fibroblasts: cells were incubated for 12 hours in the absence or presence of 2.0 mg/ml HBR, 1.5 mg/ml HA, 2.5 mM BU, or 10^-8M RA, or exposed to a hydrolyzed (HY) HBR solution (2 mg/ml), obtained from a 2-h basic HBR hydrolysis followed by pH neutralization. This procedure affords a complete release of each single HBR grafted moiety, leading to the formation of a mixture of HA, BU, and RA, with each molecule in the concentration range reported above for the experiments based on cell incubation in the presence of each molecule alone. The amount of each transcript from exposed or unexposed cells was normalized to HPRT1, and the mRNA expression of exposed cells was plotted at each time point as fold change relative to the expression in control unexposed cells, defined as 1 (mean±S.E.; n=6).
This procedure affords a complete release of each single HBR grafted moiety, leading to the formation of a mixture of HA, BU, and RA, with each molecule in the concentration range reported above for the experiments based on (stem) cell incubation in the presence of each molecule alone.

Lipogems-derived hASCs [2] = details: HBR for 14 days, confocal microscopy
human skin fibroblasts = details: 14 days, 2 mg/ml HBR, mean±S.E., n=6
Lipogems-derived hASCs [3] = details: 2 mg/ml HBR
Excerpt: (§1) A, Sox2; B, Oct4; C, Nanog. The amount of each transcript from exposed or unexposed cells was normalized to HPRT1, and the mRNA expression of exposed cells was plotted at each time point as fold change relative to the expression in control unexposed cells, defined as 1 (mean±S.E.; n=6);

[4] = system: human dermal skin fibroblasts; details: 2 mg/ml HBR
Excerpt: as §1

Lipogems-derived hASCs [5] = details: 14 days, 2 mg/ml HBR, mean±S.E., n=6
Lipogems-derived hASCs [6] = details: 2 mg/ml HBR, 7-day treatment
Excerpt: as §1, with “GATA4;” for “Sox2;”, “Nkx2.5;” for “Oct4;”, “neurogenin1; D, VEGF; E, MyoD.” for “Nanog.”

[7] = system: human dermal skin fibroblasts; details: 2 mg/ml HBR, 7-day treatment
Excerpt: as §1, with “GATA4;” for “Sox2;”, “Nkx2.5;” for “Oct4;”, “neurogenin1; D, VEGF; E, MyoD.” for “Nanog.”

[8] = system: human dermal skin fibroblasts; details: HBR 2 mg/ml for 14 days, confocal microscopy
Excerpt: Scale bars are 40 μm. Representative of six separate experiments;

[9] = system: adult rat cardiac ventricular cardiomyocytes; details: in vitro HBR treatment; cited from earlier work
[10] = system: Stro-1 positive rat mesenchymal stem cells; details: in vitro HBR treatment; cited from earlier work
[11] = later times of exposure (7-day treatment)
[12] = within the first 12-24 hours of a 7-day treatment

| Molecule | transcription of the stemness/pluripotency genes Sox2, Nanog and Oct4 versus unexposed control [1] | expression of tissue restricted marker proteins (α-myosin heavy chain, α-sarcomeric actinin, β-3 tubulin, vWF, myoD) (Lipogems-derived hASCs [2]) | cells expressing vWF (endothelial marker) (human skin fibroblasts) | cells expressing β-3-tubulin (neuronal determination marker) (human skin fibroblasts) [%] | percentage of myoD (skeletal muscle)-positive elements (human skin fibroblasts) [%] | percentage of α-sarcomeric actinin (myocardial)-positive elements (human skin fibroblasts) [%] | transcription of stemness-related genes Nanog, Sox2, Oct4 (Lipogems-derived hASCs [3]; [11]) | transcription of stemness-related genes Nanog, Sox2, Oct4 (Lipogems-derived hASCs [3]; [12]) | transcription of stemness-related genes Nanog, Sox2, Oct4 [4, 11] | transcription of stemness-related genes Nanog, Sox2, Oct4 [4, 12] | cells expressing α-sarcomeric actinin (Lipogems-derived hASCs [5]) [%] | myoD positive cells (Lipogems-derived hASCs [5]) [%] | vWF positive cells (Lipogems-derived hASCs [5]) [%] | β-3-tubulin expressing cells (Lipogems-derived hASCs [5]) [%] | gene expression of GATA4, Nkx2.5, VEGF, neurogenin-1 and myoD (Lipogems-derived hASCs [6]) | gene expression of GATA4, Nkx2.5, VEGF, neurogenin-1 and myoD [7] | expression of tissue restricted marker proteins (α-myosin heavy chain, α-sarcomeric actinin, β-3 tubulin, vWF, myoD) [8] | histone H4 acetylation compared with untreated cells [9] | histone H4 acetylation compared with untreated cells [10] |
| --- | --- | --- | --- | --- | --- | --- | --- | --- | --- | --- | --- | --- | --- | --- | --- | --- | --- | --- | --- |
| CCCC(=O)O [BU, butyric acid] | significantly increased |  |  |  |  |  |  |  |  |  |  |  |  |  |  |  |  |  |  |
| hyaluronic acid [HA] | significantly increased |  |  |  |  |  |  |  |  |  |  |  |  |  |  |  |  |  |  |
| hyaluronic acid esterified with butyric and retinoic acids [HBR] | significantly higher levels | appearance of cells expressing | 18.0±2.6 | 12.30±2.7 | 14.00±3.00 | 28.00±3.40 | down-regulation | significantly enhanced | down-regulation | significantly enhanced | 31.0±2.8 | 12.4±2.0 | 22.2±3.0 | 14.0±2.1 | significantly enhanced | significantly enhanced | appearance of cells expressing | significant increase | significant increase |
